# In ChEMBL document CHEMBL5244247, “Natural and synthetic coumarins as antileishmanial agents: A review” (Eur J Med Chem, 2020):
# pIC50: −log10 of the molar value.
# What was measured:
# Leishmania amazonensis [1] = assay: Antileishmanial activity against amastigote form of Leishmania amazonensis assessed as parasite growth inhibition; type: functional, organism-based
# Leishmania amazonensis [2] = assay: Antileishmanial activity against promastigote form of Leishmania amazonensis assessed as parasite growth inhibition incubated for 72 hrs by neubauer counting chamber analysis; type: functional, organism-based
# Leishmania panamensis = assay: Antileishmanial activity against intracellular Leishmania panamensis amastigotes infected in human U-937 cells assessed as inhibition at 20 ug/mL incubated for 72 hrs by flow cytometry relative to control; type: functional
# Leishmania amazonensis [3] = assay: Antileishmanial activity against promastigote form of Leishmania amazonensis; type: functional, organism-based
# Leishmania infantum [4] = assay: Antileishmanial activity against promastigote form of Leishmania infantum; type: functional, organism-based
# Leishmania braziliensis = assay: Antileishmanial activity against promastigote form of Leishmania braziliensis; type: functional, organism-based; settings: Leishmania braziliensis
# Leishmania amazonensis [5] = assay: Antileishmanial activity against promastigote form of Leishmania amazonensis assessed as parasite growth inhibition incubated for 72 hrs by regression analysis; type: functional, organism-based
# Leishmania donovani [6] = assay: Antileishmanial activity against amastigote form of Leishmania donovani; type: functional, organism-based
# Leishmania donovani [7] = assay: Antileishmanial activity against promastigote form of Leishmania donovani; type: functional, organism-based
# Leishmania major [8] = assay: Antiproliferative activity against promastigote form of Leishmania major assessed as lethal dose; type: functional; settings: read-out: LD50 (the source's name)
# Leishmania major [9] = assay: Antileishmanial activity against promastigote form of Leishmania major assessed as inhibition of parasite growth by Litchfield-Wilcoxon method; type: functional, organism-based
# Leishmania donovani [10] = assay: Antileishmanial activity against amastigote form of Leishmania donovani at 50 uM assessed as inhibition of parasite growth relative to control; type: functional
# Leishmania major [11] = assay: Antileishmanial activity against promastigote form of Leishmania major assessed as inhibition at 100 uM incubated for 72 hrs by MTT assay relative to control; type: functional
# Leishmania major [12] = assay: Antileishmanial activity against promastigote form of Leishmania major assessed as inhibition at 0.1 uM incubated for 72 hrs by MTT assay relative to control; type: functional
# Leishmania major [13] = assay: Antileishmanial activity against promastigote form of Leishmania major assessed as inhibition incubated for 72 hrs by MTT assay; type: functional, organism-based
# Leishmania major [14] = assay: Antileishmanial activity against promastigote form of Leishmania major assessed as inhibition of parasite growth by MTT colorimetric cell viability assay; type: functional, organism-based
# Leishmania amazonensis [15] = assay: Antileishmanial activity against Leishmania amazonensis infected in BALB/c mouse assessed as reduction in parasite load at 10 mg/kg, sc administered for 14 days relative to control; type: functional; design: scale not given: the % may be the effect or the level left
# Leishmania major [16] = assay: Antileishmanial activity against promastigote form of Leishmania major; type: functional, organism-based
# Leishmania mexicana = assay: Antileishmanial activity against promastigote form of Leishmania mexicana; type: functional, organism-based
# Leishmania chagasi = assay: Antileishmanial activity against promastigote form of Leishmania chagasi; type: functional, organism-based
# Leishmania infantum [17] = assay: Antileishmanial activity against amastigote form of Leishmania infantum; type: functional, organism-based
# Peritoneal macrophage = assay: Cytotoxicity against mouse peritoneal macrophage; type: functional, cell-based
# [18] = Selectivity index, ratio of CC50 for cytotoxicity against mouse J774G8 cells to IC50 for antileishmanial activity against intracellular Leishmania amazonensis MHOM/BR/75/Josefa amastigotes infected in BALB/c mouse peritoneal macrophages; type: toxicity, cell-based; settings: read-out: Ratio CC50/IC50
# Leishmania amazonensis [19] = assay: Antileishmanial activity against intracellular Leishmania amazonensis MHOM/BR/75/Josefa amastigotes infected in BALB/c mouse peritoneal macrophages assessed as parasite growth inhibition incubated for 24 hrs by regression analysis; type: functional, organism-based; settings: Peritoneal macrophage
# [20] = Selectivity index, ratio of IC50 for cytotoxicity against human THP-1 cells to IC50 for antileishmanial activity against axenic amastigote stage of Leishmania infantum infected in human THP-1 cells; type: toxicity, cell-based; settings: read-out: Selectivity Index
# THP-1 = assay: Cytotoxicity against human THP-1 cells assessed as inhibition incubated for 24 hrs by flow cytometry assay; type: functional, cell-based; settings: THP-1, 24 h
# Leishmania infantum [21] = assay: Antileishmanial activity against axenic amastigote stage of Leishmania infantum infected in human THP-1 cells assessed as inhibition of parasite growth incubated for 24 hrs by flow cytometry assay; type: functional, organism-based; settings: THP-1, 24 h
# [22] = target: Acetylcholinesterase (Homo sapiens) (UniProt P22303); assay: Inhibition of AChE (unknown origin) assessed as inhibition zone by Ellman's colorimetric method
# Chain of Acetylcholinesterase (Homo sapiens) (P22303 whole entry): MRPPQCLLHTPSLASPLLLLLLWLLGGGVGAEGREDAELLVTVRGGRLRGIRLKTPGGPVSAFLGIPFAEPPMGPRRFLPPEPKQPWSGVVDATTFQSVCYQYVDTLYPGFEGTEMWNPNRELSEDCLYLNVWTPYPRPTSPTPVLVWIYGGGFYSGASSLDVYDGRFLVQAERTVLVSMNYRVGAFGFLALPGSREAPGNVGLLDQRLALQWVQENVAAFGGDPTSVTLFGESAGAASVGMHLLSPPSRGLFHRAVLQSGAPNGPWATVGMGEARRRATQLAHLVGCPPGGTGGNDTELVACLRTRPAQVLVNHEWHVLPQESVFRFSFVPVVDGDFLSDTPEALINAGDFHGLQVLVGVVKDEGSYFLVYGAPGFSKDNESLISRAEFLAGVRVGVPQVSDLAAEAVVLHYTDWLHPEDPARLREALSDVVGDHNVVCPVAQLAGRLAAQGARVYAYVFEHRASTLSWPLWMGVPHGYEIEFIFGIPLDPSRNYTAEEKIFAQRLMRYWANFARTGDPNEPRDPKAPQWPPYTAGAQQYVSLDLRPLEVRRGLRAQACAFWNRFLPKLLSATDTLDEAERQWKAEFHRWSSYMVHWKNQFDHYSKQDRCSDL
compound,measurement,setting,value
CC(=O)OC[C@H]1O[C@@H](Oc2ccc3c(-c4ccccc4)cc(=O)oc3c2)[C@H](OC(C)=O)[C@@H](OC(C)=O)[C@@H]1OC(C)=O,pIC50,Leishmania amazonensis [1],4.46
same,pIC50,Leishmania amazonensis [2],5.00
CC(C)=CCOc1ccc2c(-c3ccccc3)cc(=O)oc2c1,pIC50,Leishmania amazonensis [1],4.24
same,pIC50,Leishmania amazonensis [2],4.67
Cc1cc(=O)oc2cc(OCCCCCOc3cc(Cl)ccc3Oc3ccc(Cl)cc3Cl)ccc12,inhibition at 20 µg/mL,Leishmania panamensis,50%
COc1cc2ccc(=O)oc2cc1O [SCOPOLETIN],pIC50,Leishmania amazonensis [3],< 4.30
same,pIC50,Leishmania infantum [4],< 4.30
same,pIC50,Leishmania braziliensis,< 4.30
CCCc1cc(=O)oc2c(C(=O)C(C)CC)c(O)c(CC=C(C)C)c(O)c12 (stereo not drawn),pIC50,Leishmania amazonensis [5],4.52
COc1cc(O[C@@H]2O[C@H](CO)[C@@H](O)[C@H](O)[C@H]2O)c2c(-c3ccc(O)c(O)c3)cc(=O)oc2c1,pIC50,Leishmania donovani [6],< 4.05
same,pIC50,Leishmania donovani [7],4.54
CC(C)=CCC/C(C)=C/COc1ccc2ccc(=O)oc2c1,LC50,Leishmania major [8],30 µM
same,pIC50,Leishmania major [9],4.77
O=c1cc(-c2ccccc2)c2c(O)cc(O)cc2o1,pIC50,Leishmania amazonensis [5],4.22
N#C/C(=N\Nc1ccccc1)C1=COC(c2cc3ccccc3oc2=O)=CC1C#N (stereo not drawn),pIC50,Leishmania donovani [6],4.85
same,inhibition at 50 µM,Leishmania donovani [10],92%
Cc1cccc(-n2c(-c3cc4ccccc4oc3=O)cs/c2=N/NC(=O)c2cc3ccccc3oc2=O)c1,inhibition at 100 µM,Leishmania major [11],62.7%
same,inhibition at 0.1 µM,Leishmania major [12],53.7%
O=c1oc2ccccc2cc1-c1nnc2n1N=C(c1ccc(Cl)cc1)CS2,pIC50,Leishmania major [13],5.54
C=C1CC(C/C(C)=C/COc2ccc3ccc(=O)oc3c2O)OC1=O (stereo not drawn) [CLAUSLACTONE E],pIC50,Leishmania major [14],5.01
MEGLUMINE ANTIMONATE,Activity,Leishmania amazonensis [15]; time 14.0 day,95.2%
O=c1cc(-c2ccccc2)c2ccc(O[C@@H]3O[C@H](CO)[C@@H](O)[C@H](O)[C@H]3O)cc2o1,pIC50,Leishmania amazonensis [2],4.04
N=C(N)c1ccc(OCCCCCOc2ccc(C(=N)N)cc2)cc1 [PENTAMIDINE],EC50,Leishmania major [16],1.46 µg/mL
same,EC50,Leishmania mexicana,1.75 µg/mL
same,EC50,Leishmania donovani [7],1.41 µg/mL
same,EC50,Leishmania chagasi,5.2 µg/mL
COc1cc(O[C@@H]2O[C@H](COC(C)=O)[C@@H](OC(C)=O)[C@H](OC(C)=O)[C@H]2OC(C)=O)c2c(-c3ccc(OC(C)=O)c(OC(C)=O)c3)cc(=O)oc2c1,pIC50,Leishmania donovani [6],< 4.05
same,pIC50,Leishmania donovani [7],4.91
C=CC(C)(C)c1cc2cc3c(cc2oc1=O)OC(C)(C)[C@@H](O)C3,pIC50,Leishmania amazonensis [3],4.45
same,pIC50,Leishmania infantum [4],4.56
same,Activity,Leishmania amazonensis [15]; time 14 day,95.6%
same,pIC50,Leishmania braziliensis,4.49
CC1=CC[C@@H]2C(C)(C)[C@H](O)CC[C@@]2(C)[C@@H]1COc1ccc2ccc(=O)oc2c1 [FESELOL],pIC50,Leishmania infantum [17],5.17
same,pIC50,Peritoneal macrophage,5.10
Cc1cccc(-n2c(-c3cc4ccccc4oc3=O)cs/c2=N/NC(=O)c2cc3ccccc3oc2=O)c1C,inhibition at 100 µM,Leishmania major [11],70.4%
same,inhibition at 0.1 µM,Leishmania major [12],53.9%
C=C(C)C(CC/C(C)=C/COc1cc(O)cc2oc(=O)ccc12)OO (stereo not drawn),pIC50,Leishmania major [14],4.69
C/C(=C\COc1cc(O)cc2oc(=O)ccc12)C/C=C/C(C)(C)OO,pIC50,Leishmania major [14],4.58
CCC(C)C(=O)c1c(OC)c(CC=C(C)C)c(OC)c2c(-c3ccccc3)cc(=O)oc12 (stereo not drawn),pIC50,Leishmania amazonensis [5],4.82
CCC(C)C(=O)c1c(O)c(CCC(C)C)c(O)c2c1OC(=O)CC2c1ccccc1 (stereo not drawn),selectivity ratio,[18],142
same,pIC50,Leishmania amazonensis [5],6.05
same,pIC50,Leishmania amazonensis [19],6.22
COC(=O)C1=C(N)Oc2cc(O)c3c(C)cc(=O)oc3c2C1c1ccc(Br)cc1 (stereo not drawn),pIC50,Leishmania amazonensis [1],4.48
COc1cc2oc(=O)cc(C[Se]C#N)c2cc1OC,selectivity ratio,[20],19.4
same,pIC50,THP-1,4.80
same,pIC50,Leishmania infantum [21],6.09
COC(=O)C1=C(N)Oc2cc(O)c3c(C)cc(=O)oc3c2C1c1ccc([N+](=O)[O-])cc1 (stereo not drawn),pIC50,Leishmania amazonensis [1],4.48
O=c1oc2ccccc2cc1-c1nnc2n1N=C(c1ccc(Cl)c(Cl)c1)CS2,pIC50,Leishmania major [13],6.05
CCC(C)C(OC)c1c(OC)c(CC=C(C)C)c(OC)c2c(-c3ccccc3)cc(=O)oc12 (stereo not drawn),pIC50,Leishmania amazonensis [5],5.72
same,pIC50,Leishmania amazonensis [19],4.65
CC1=CC[C@H]2[C@@H](CC[C@@H](O)C2(C)C)[C@]1(C)COc1ccc2ccc(=O)oc2c1,IC50,Leishmania major [16],46.8 µg/mL
COc1cc2ccc(=O)oc2cc1OC [SCOPARONE],pIC50,Leishmania amazonensis [3],< 4.30
same,pIC50,Leishmania infantum [4],< 4.30
same,pIC50,Leishmania braziliensis,< 4.30
same,inhibition zone (IZ),[22],8 mm
same,EC50,Leishmania major [16],14.4 µg/mL
same,EC50,Leishmania mexicana,9.11 µg/mL
same,EC50,Leishmania donovani [7],27.5 µg/mL
same,EC50,Leishmania chagasi,21.4 µg/mL
CCCCCCCCCCCCCCCCOP(=O)([O-])OCC[N+](C)(C)C [MILTEFOSINE],pIC50,Leishmania amazonensis [3],5.03
same,pIC50,Leishmania infantum [4],5.12
same,selectivity ratio,[20],7
same,pIC50,THP-1,4.73
same,pIC50,Leishmania braziliensis,4.98
same,pIC50,Leishmania infantum [21],5.55
Cc1cccc2cc(C(c3c(O)c4ccccc4oc3=O)N3CCCCC3)c(Cl)nc12 (stereo not drawn),pIC50,Leishmania donovani [7],5.00
COC(=O)C1=C(N)Oc2cc(O)c3c(C)cc(=O)oc3c2C1c1ccc(Cl)cc1 (stereo not drawn),pIC50,Leishmania amazonensis [1],4.42
CN(C)c1ccc(C(c2c(O)c3ccccc3oc2=O)c2c(O)c3ccccc3oc2=O)cc1,IC50,Leishmania donovani [7],150 µg/mL
CC1CC(CC(C)(O)C(O)COc2ccc3ccc(=O)oc3c2O)OC1=O (stereo not drawn),pIC50,Leishmania major [14],< 4.00
Cc1cc(=O)oc2cc(OCCCOc3cc(Cl)ccc3Oc3ccc(Cl)cc3Cl)ccc12,inhibition at 20 µg/mL,Leishmania panamensis,34%
CCC(C)C(=O)c1c(O)c(CC=C(C)C)c(OC)c2c(-c3ccccc3)cc(=O)oc12 (stereo not drawn),pIC50,Leishmania amazonensis [5],5.62
same,pIC50,Leishmania amazonensis [19],4.47
CNC(=O)Oc1ccc2c(c1)[C@]1(C)CCN(C)[C@@H]1N2C,inhibition zone (IZ),[22],9 mm
CC1(O)CC(CC(C)(O)C(O)COc2ccc3ccc(=O)oc3c2O)OC1=O (stereo not drawn),pIC50,Leishmania major [14],< 4.00
C[C@@H]1[C@H](O)[C@@H](C)/C=C/C=C/C=C/C=C/C=C/C=C/C=C/[C@H](O[C@@H]2O[C@H](C)[C@@H](O)[C@H](N)[C@@H]2O)C[C@@H]2O[C@](O)(C[C@@H](O)C[C@@H](O)[C@H](O)CC[C@@H](O)C[C@@H](O)CC(=O)O[C@H]1C)C[C@H](O)[C@H]2C(=O)O [AMPHOTERICIN B],inhibition at 100 µM,Leishmania major [11],79.8%
C=C1C=C[C@H]2C(C)(C)C(=O)CC[C@]2(C)[C@@H]1COc1ccc2ccc(=O)oc2c1,IC50,Leishmania major [16],43.8 µg/mL
N#CCC1=NN=C(c2cc3ccccc3oc2=O)C(CC(=O)c2ccc(Cl)cc2)O1 (stereo not drawn),pIC50,Leishmania donovani [6],4.85
same,inhibition at 50 µM,Leishmania donovani [10],95%
N#CCC1=NN=C(c2cc3ccccc3oc2=O)C(CC(=O)c2ccccc2)O1 (stereo not drawn),inhibition at 50 µM,Leishmania donovani [10],36%
CC(C)=C1CC[C@H](C)[C@](C)(COc2ccc3ccc(=O)oc3c2)[C@H]1CCC(=O)O [GALBANIC ACID],pIC50,Leishmania major [9],3.78
C=C1CC(CC(C)(O)C(O)COc2ccc3ccc(=O)oc3c2O)OC1=O (stereo not drawn),pIC50,Leishmania major [14],4.92
COc1cc(O[C@@H]2O[C@H](CO)[C@@H](O)[C@H](O)[C@H]2O)c2c(-c3ccc(OC)c(OC)c3)cc(=O)oc2c1,pIC50,Leishmania donovani [6],< 4.05
same,pIC50,Leishmania donovani [7],4.99
